Results taken from patent US9522920B2, “Bromodomain inhibitors and uses thereof” (Constellation Pharmaceuticals, Inc., priority 2010, dated 2016).
Where two headings read alike, the source gives them in different places.

Key:
BRD4(BD1) = target: T1, BRD4(BD1) (Homo sapiens, UniProt O60885); assay: BRD4 AlphaLisa binding assay (Alphascreen)
T1 construct: His; made in house
Procedure: Specifically, in a 384 well ProxiPlate BRD4(BD1) (30 nM final) was combined with peptide (200 nM final) in 40 mM HEPES (pH 7.0), 40 mM NaCl, 1 mM DTT, 0.01% (w/v) BSA, and 0.008% (w/v) Brij-35 either in the presence of DMSO (final 1.2% DMSO) or compound dilution series in DMSO. After 20 minute incubation at room temperature Alpha streptavidin donor beads and AlphaLisa anti-Flag acceptor beads were added to a final concentration of 10 ug/mL each. After three hours equilibration plates were read on an Envision instrument and IC50s calculated using a four parameter non-linear curve fit.

IL-6 secretion = assay: Cell-based IL-6 quantification assay (ELISA, Mesoscale) in LPS-stimulated THP-1 cells; details: read-out: IL6
Procedure: 100,000 THP-1 cells were seeded in RPMI1640-10% FBS in 96-well plates. LPS (E. Coli Invitrogen) in RPMI-10% FBS at a final concentration of 4 μg/mL was added to the wells and the cells are then incubated in the presence of various concentrations of compounds for 16 h. Plates are spun ([…], 5 min), an aliquot of 25 uL supernatant is transferred in to an ELISA plate (Mesoscale technology, MSD) and the detection of IL-6 is performed using manufacturer's instructions. The amount of cells in each well is assessed using CellTiter-Glo® (Promega). The ratio of ELISA value/CellTiter-Glo value is used to calculate the percent of inhibition of IL-6 secretion.

[1] = Table 6, BRD4(BD1) 30 nM, H4-tetraacetyl peptide 200 nM, read-out: BRD4 Alphascreen IC50
[2] = Homo sapiens, THP-1, 16 h, Table 7, THP-1 cells, LPS 4 μg/mL, 16 h, normalised to CellTiter-Glo
[3] = Table 14, BRD4 AlphaLisa Binding Assay, read-out: Alpha screen
[4] = Table 14, THP-1 cells, LPS, 16 h
[5] = Homo sapiens, THP-1, 16 h, Table 14, THP-1 cells, LPS, 16 h

SMILES: Cc1noc2c1-c1sc(C)c(C)c1C(c1cccnc1)=NC2CC(N)=O (stereo not drawn) [Compound 106]
- IC50 (BRD4(BD1); [1]): < 0.5 µM
- IC50 (IL-6 secretion; [2]): < 0.5 µM

SMILES: Cc1noc2c1-c1sc(C)c(C)c1C(c1ccncc1)=NC2CC(N)=O (stereo not drawn) [Compound 107]
- IC50 (BRD4(BD1); [1]): < 0.5 µM
- IC50 (IL-6 secretion; [2]): < 0.5 µM

SMILES: Cc1noc2c1-c1sc(C)c(C)c1C(Nc1ccc(Cl)cc1)=N[C@H]2CC(N)=O [Compound 185, 2-((6S)-4-((4-Chlorophenyl)amino)-2,3,9-trimethyl-6H-isoxazolo[5,4-c]thieno[2,3-e]azepin-6-yl)acetamide]
- IC50 (BRD4(BD1); [1]): > 1 µM
- IC50 (IL-6 secretion; [2]): > 1 µM

SMILES: Cc1onc2c1-c1ccccc1C(c1ccc(Cl)cc1)=NC2O (stereo not drawn) [Compound 153, 6-(4-chlorophenyl)-1-methyl-4H-benzo[c]isoxazolo[4,3-e]azepin-4-ol]
- IC50 (BRD4(BD1); [1]): > 1 µM
- IC50 (IL-6 secretion; [2]): > 1 µM

SMILES: Cc1noc2c1-c1ccn(-c3ccc(C#N)cc3)c(=O)c1C(c1ccc(Cl)cc1)=NC2 [Compound 178, 4-(6-(4-Chlorophenyl)-1-methyl-7-oxo-4H-isoxazolo[5,4-c]pyrido[4,3-e]azepin-8(7H)-yl)benzonitrile]
- IC50 (BRD4(BD1); [1]): > 1 µM
- IC50 (IL-6 secretion; [2]): > 1 µM

SMILES: Cc1noc2c1-c1sc(C)c(C)c1C(N1CCN(C)CC1)=NC2CC(N)=O (stereo not drawn) [Compound 121]
- IC50 (BRD4(BD1); [1]): > 1 µM
- IC50 (IL-6 secretion; [2]): > 1 µM

SMILES: CNc1cc2c(cn1)-c1c(C)noc1CN=C2c1ccc(Cl)cc1 [Compound 258, 6-(4-Chlorophenyl)-N,1-dimethyl-4H-isoxazolo[5,4-c]pyrido[3,4-e]azepin-8-amine]
- IC50 (BRD4(BD1); [3]): < 0.5 µM

SMILES: CCNC(=O)NC1N=C(c2ccc(OC(F)(F)F)cc2)c2ccccc2-c2c(C)noc21 (stereo not drawn) [compound 259]
- IC50 (BRD4(BD1); [3]): < 0.5 µM

SMILES: CCOC(=O)C[C@@H]1N=C(c2ccc(Cl)cc2)c2ccccc2-c2c1noc2C [Compound 162, Ethyl 2-((4S)-6-(4-chlorophenyl)-1-methyl-4H-benzo[c]isoxazolo[4,3-e]azepin-4-yl)acetate]
- IC50 (BRD4(BD1); [1]): < 0.5 µM
- IC50 (IL-6 secretion; [2]): > 1 µM

SMILES: Cc1noc2c1-c1sc(C)c(C)c1C(C(C)c1ccccc1)=N[C@H]2CC(N)=O (stereo partly drawn) [Compound 195]
- IC50 (BRD4(BD1); [3]): > 1 µM
- IC50 (IL-6 secretion; [4]): > 1 µM

SMILES: Cc1noc2c1-c1sc(C)c(C)c1C(C1CCN(C)CC1)=N[C@H]2CC(N)=O [Compound 194]
- IC50 (BRD4(BD1); [3]): > 1 µM
- IC50 (IL-6 secretion; [4]): > 1 µM

SMILES: Cc1cc(Cl)ccc1C1=NC(CC(N)=O)c2onc(C)c2-c2ccccc21 (stereo not drawn) [Compound 151]
- IC50 (BRD4(BD1); [1]): < 0.5 µM
- IC50 (IL-6 secretion; [2]): < 0.5 µM

SMILES: Cc1noc2c1-c1sc(C)c(C)c1C(C1CCOCC1)=N[C@H]2CC(N)=O [Compound 168, 2-((6S)-2,3,9-trimethyl-4-(tetrahydro-2H-pyran-4-yl)-6H-isoxazolo[5,4-c]thieno[2,3-e]azepin-6-yl)acetamide]
- IC50 (BRD4(BD1); [1]): > 1 µM
- IC50 (IL-6 secretion; [2]): > 1 µM

SMILES: Cc1noc2c1-c1sc(C)c(C)c1C(C1CC1)=NC2CC(N)=O (stereo not drawn) [Compound 125]
- IC50 (BRD4(BD1); [1]): > 1 µM
- IC50 (IL-6 secretion; [2]): > 1 µM

SMILES: CCNC(=O)C[C@H]1N=C(c2ccc(Cl)cc2)c2c(sc(C)c2C)-c2c(C)noc21 [Compound 167, 2-((6R)-4-(4-chlorophenyl)-2,3,9-trimethyl-6H-isoxazolo[4,5-e]thieno[3,2-c]azepin-6-yl)-N-ethylacetamide]
- IC50 (BRD4(BD1); BRD4 Alphascreen IC50, Table 6, BRD4(BD1) 30 nM, H4-tetraacetyl peptide 200 nM): > 1 µM

SMILES: Cc1noc2c1-c1sc(C)c(C)c1C(c1ccn(C)n1)=NC2CC(N)=O (stereo not drawn) [Compound 101]
- IC50 (BRD4(BD1); [1]): < 0.5 µM
- IC50 (IL-6 secretion; [2]): 0.5 to 1 µM

SMILES: Cc1noc2c1-c1sc(C)c(C)c1C(Cc1ccccc1)=N[C@H]2CC(N)=O [Compound 127, 2-((6S)-4-benzyl-2,3,9-trimethyl-6H-isoxazolo[5,4-c]thieno[2,3-e]azepin-6-yl)acetamide]
- IC50 (BRD4(BD1); [1]): > 1 µM
- IC50 (IL-6 secretion; [2]): > 1 µM

SMILES: Cc1noc2c1-c1sc(C)c(C)c1C(N1CCCN(C)CC1)=NC2CC(N)=O (stereo not drawn) [Compound 123]
- IC50 (BRD4(BD1); [1]): > 1 µM
- IC50 (IL-6 secretion; [2]): > 1 µM

SMILES: Cc1onc2c1-c1ccccc1C(c1ccc(Cl)cc1)=NC2 [Compound 191, 6-(4-chlorophenyl)-1-methyl-4H-benzo[c]isoxazolo[4,3-e]azepine]
- IC50 (BRD4(BD1); [1]): > 1 µM

SMILES: Cc1noc2c1-c1sc(C)c(C)c1C(N1CCOCC1)=NC2CC(N)=O (stereo not drawn) [Compound 122]
- IC50 (BRD4(BD1); [1]): > 1 µM
- IC50 (IL-6 secretion; [2]): > 1 µM

SMILES: Cc1onc2c1-c1ccccc1C(c1ccc(Cl)cc1)=NC2N (stereo not drawn) [Compound 154, 6-(4-chlorophenyl)-1-methyl-4H-benzo[c]isoxazolo[4,3-e]azepin-4-amine]
- IC50 (BRD4(BD1); [1]): > 1 µM
- IC50 (IL-6 secretion; [2]): > 1 µM

SMILES: Cc1noc2c1-c1sc(C)c(C)c1C(c1ccn(C)c(=O)c1)=NC2CC(N)=O (stereo not drawn) [Compound 119]
- IC50 (BRD4(BD1); [1]): < 0.5 µM
- IC50 (IL-6 secretion; [2]): 0.5 to 1 µM

SMILES: Cc1noc2c1-c1sc(C)c(C)c1C(c1ccccc1Cl)=NC2CC(N)=O (stereo not drawn) [Compound 111]
- IC50 (BRD4(BD1); [1]): < 0.5 µM
- IC50 (IL-6 secretion; [2]): < 0.5 µM

SMILES: Cc1noc2c1-c1ccnc(F)c1C(c1ccc(Cl)cc1)=NC2 [Compound 169, 6-(4-Chlorophenyl)-7-fluoro-1-methyl-4H-isoxazolo[5,4-c]pyrido[4,3-e]azepine]
- IC50 (BRD4(BD1); [1]): > 1 µM
- IC50 (IL-6 secretion; [2]): > 1 µM

SMILES: Cc1onc2c1-c1ccccc1C(c1ccc(Cl)cc1)=NC2C (stereo not drawn) [Compound 156, 6-(4-chlorophenyl)-1,4-dimethyl-4H-benzo[c]isoxazolo[4,3-e]azepine]
- IC50 (BRD4(BD1); [1]): < 0.5 µM
- IC50 (IL-6 secretion; [2]): > 1 µM

SMILES: Cc1noc2c1-c1sc(C)c(C)c1C(c1ccnnc1)=NC2CC(N)=O (stereo not drawn) [Compound 104]
- IC50 (BRD4(BD1); [1]): 0.5 to 1 µM
- IC50 (IL-6 secretion; [2]): 0.5 to 1 µM

SMILES: COC(=O)NC[C@@H]1N=C(c2ccc(Cl)cc2)c2c(sc(C)c2C)-c2c(C)noc21 [Compound 183, Methyl (((6S)-4-(4-chlorophenyl)-2,3,9-trimethyl-6H-isoxazolo[5,4-c]thieno[2,3-e]azepin-6-yl)methyl)carbamate]
- IC50 (BRD4(BD1); [1]): < 0.5 µM
- IC50 (IL-6 secretion; [2]): 0.5 to 1 µM

SMILES: Cc1noc2c1-c1cn(C)nc1C(c1ccc(Cl)cc1)=NC2 [Compound 265, 6-(4-chlorophenyl)-1,8-dimethyl-4,8-dihydroisoxazolo[5,4-c]pyrazolo[4,3-e]azepine]
- IC50 (IL-6 secretion; [5]): > 1 µM

SMILES: COc1nccc2c1C(c1ccc(Cl)cc1)=NCc1onc(C)c1-2 [Compound 170, 6-(4-Chlorophenyl)-7-methoxy-1-methyl-4H-isoxazolo[5,4-c]pyrido[4,3-e]azepine]
- IC50 (BRD4(BD1); [1]): < 0.5 µM
- IC50 (IL-6 secretion; [2]): > 1 µM

SMILES: Cc1noc2c1-c1ccccc1C(c1ccc(C#N)cc1)=NC2NC(=O)C(C)C (stereo not drawn) [compound 264]
- IC50 (BRD4(BD1); [3]): > 1 µM
- IC50 (IL-6 secretion; [4]): > 1 µM

SMILES: Cc1noc2c1-c1ccn(C)c(=O)c1C(c1ccc(Cl)cc1)=NC2 [Compound 177, 6-(4-Chlorophenyl)-1,8-dimethyl-4H-isoxazolo[5,4-c]pyrido[4,3-e]azepin-7(8H)-one]
- IC50 (BRD4(BD1); [1]): > 1 µM
- IC50 (IL-6 secretion; [2]): > 1 µM

SMILES: Cc1noc2c1-c1c[nH]c(=O)cc1C(c1ccc(Cl)cc1)=NC2 [Compound 266, 6-(4-Chlorophenyl)-1-methyl-4H-isoxazolo[5,4-c]pyrido[3,4-e]azepin-8(9H)-one]
- IC50 (BRD4(BD1); [3]): < 0.5 µM
- IC50 (IL-6 secretion; [5]): < 0.5 µM

SMILES: Cc1noc2c1-c1ccnc(OC(C)C)c1C(c1ccc(Cl)cc1)=NC2 [Compound 171, 6-(4-Chlorophenyl)-7-isopropoxy-1-methyl-4H-isoxazolo[5,4-c]pyrido[4,3-e]azepine]
- IC50 (BRD4(BD1); [1]): > 1 µM
- IC50 (IL-6 secretion; Homo sapiens, THP-1, 16 h): > 1 µM

SMILES: CCNC(=O)C[C@H]1N=C(c2ccc(Cl)cc2)c2ccccc2-c2c1noc2C [Compound 189, 2-((4R)-6-(4-chlorophenyl)-1-methyl-4H-benzo[c]isoxazolo[4,3-e]azepin-4-yl)-N-ethylacetamide]
- IC50 (BRD4(BD1); [1]): > 1 µM

SMILES: CCNC(=O)NC1N=C(c2ccc(F)cc2)c2ccccc2-c2c(C)noc21 (stereo not drawn) [compound 260]
- IC50 (BRD4(BD1); [3]): < 0.5 µM
